In assay [1] the test system is distal middle cerebral artery occlusion (dMCAO) mouse model. The experiment in a line: Collateral artery size and function after dMCAO stroke induction. It is filed as in vivo. The text has this: (§1) FIGS. 6A, 6B, and 6C. […] FIG. 6A depicts the time course of the experiment, with recombinant DLL4 administered one day prior to and for seven days following dMCAO stroke induction. FIG. 6B: Collateral artery diameter, velocity, and flux, and the area between the vertical lines denotes the period of DLL4 administration. Triangles: rDLL4, Circles: Control. Control, n=5, Treated; n=5. *P<0.05, **P<0.01. FIG. 6C depicts ladder test results for mice are subject to behavior test at 15 to 17 days after experimental stroke, the scores being the average of the two measurements.
(§2) Collateral artery size and function was assessed at seven and fourteen days following injury.

Assay [2] shares this test system. Nature of the assay: Ladder test of neurological function after dMCAO. It is filed as in vivo.
From the text: as §1, §2

Where [3] appears, read: wild type C57BL/6J mice, dMCAO, daily iv for eight days from the day before dMCAO, day 7, vs control.

Take “rDLL4: recombinant mouse DLL4 (Delta-like ligand 4), a Notch activating ligand, given intravenously”: the “collateral artery size and function (diameter, velocity, flux)” value in assay [1] (day 14 after dMCAO, 7 days after administration was halted, vs control) was “Significant improvements in the treated mice persisted”. Also, in assay [1] (following dMCAO, FIG. 6 legend), the cerebral blood flow entry is listed as “preserves cerebral blood flow” and the growth of collaterals result is on record as “improves growth of collaterals”. Further, in assay [1] (setting [3]), the collateral artery diameter entry was “significantly improved”, the collateral artery flux entry was “significantly improved” and the collateral artery velocity entry is recorded as “significantly improved”. The “neurological function, ladder test” value in assay [2] (day 15 and 17 after dMCAO, vs control) is on record as “higher in the treated mice”. In addition, the neurological function entry in assay [2] (following dMCAO, FIG. 6 legend) was “improving neurological function”.

These data come from patent US20210220434A1, “Treatment of Vascular Occlusion by Activation of Notch Signaling” (The Regents of the University of California, priority 2018, published 2021).
